In brackets after ≈: the same amount, converted by molar mass.
Experiments:
[1] = tested on: Canis familiaris; test: In vivo antihypertensive activity against anaesthetized dogs after intravenous administration of specified threshold dose; assay type: functional, Canis lupus familiaris
[2] = species: Oryctolagus cuniculus; test: Evaluated in vitro for the inhibition of KCl-induced contraction of isolated rabbit aorta rings.; assay type: functional

| Compound | IC50 [2] | Dose [1] |
| --- | --- | --- |
| COC(=O)C1=C(C)NC(C)=C(C(=O)OC)C1c1ccccc1 | 0.04 µg/mL (≈ 0.133 µM) | 0.05 mg/kg |
| COC(=O)C1=C(C)N=C(C)/C(=C(/O)OC)C1(C)c1ccccc1 (stereo unspecified) | 1.2 µg/mL (≈ 3.81 µM) | 3 mg/kg |
| CCC1(c2ccccc2)C(C(=O)OC)=C(C)N=C(C)/C1=C(/O)OC (stereo unspecified) | 3.6 µg/mL (≈ 10.9 µM) |  |

Further lines, with some results ahead:

| IC50 [2] | Compound | Dose [1] |
| --- | --- | --- |
| 0.5 µg/mL (≈ 1.51 µM) | CCOC(=O)C1=C(C)N=C(C)/C(=C(/O)OCC)C1c1cccnc1 (stereo unspecified) | 0.3 mg/kg |
| 2.3 µg/mL (≈ 6.38 µM) | COC(=O)C1=C(C)N=C(C)/C(=C(/O)OC)C1(C)c1cccc([N+](=O)[O-])c1 (stereo unspecified) | 0.3 mg/kg |
| 9 µg/mL (≈ 26.1 µM) | CCOC(=O)C1=C(C)N=C(C)/C(=C(/O)OCC)C1(C)c1cccnc1 (stereo unspecified) | 3 mg/kg |

Reference: ChEMBL document CHEMBL1124767, “Synthesis, pharmacological effects, and conformation of 4,4-disubstituted 1,4-dihydropyridines” (J Med Chem, 1990)
